# According to paper PMC2866477, “Anticancer Effect and Structure-Activity Analysis of Marine Products Isolated from Metabolites of Mangrove Fungi in the South China Sea” (Marine Drugs, 2010):
# Tests used:
# A549 cells = test: MTT cytotoxicity assay, A549 cells; format: cell-based; conditions: Homo sapiens, 72 h treatment, A549 lung carcinoma cells
# Method: (§1) The cell lines were cultured in DMEM or RPMI 1640 containing 10% fetal bovine serum at 37 °C in the presence of 5% CO2. The cell lines were the oral epidermoid carcinoma cell lines KB and its vincristine-selected ABCB1-overexpressing KBv200 [10]; the breast carcinoma cell lines MCF-7 and its doxorubicin-selected ABCB1-overexpressing MCF-7/adr; the lung carcinoma cell line A549 and normal liver cell line LO2.
# (§2) The MTT assay was used to evaluate the cytotoxicity of a number of compounds previously isolated from mangrove-derived fungi as described. Briefly, 3–4 × 10^3 cells were incubated in 96-well plates and allowed to attach overnight before compounds at full range concentrations were added. The concentrations were chosen so that the highest concentration killed most of the cells and the lowest killed none of the cells. After 72 h treatment, 0.5 mg/ml MTT was added to each well for an additional 4 h. Subsequently, the supernatant was removed, and the purple MTT-formazan crystals were dissolved by DMSO. Finally, absorbance was recorded at 540 nm with 655 nm as a reference filter using a Model 550 Microplate Reader (Bio-Rad, USA). Experiments were performed at least three times. The standard chemotherapeutic agent doxorubicin was used as a positive control in MTT assay and normal liver cell line LO2 was used to show whether cytotoxic activity was tumor-specific. The concentrations required to inhibit growth by 50% (IC50) were calculated from survival curves using the Bliss method.
# KB cells = test: MTT cytotoxicity assay, KB cells; format: cell-based; conditions: Homo sapiens, 72 h treatment, KB oral epidermoid carcinoma cells
# Method: as §1, §2
# KBv200 cells = test: MTT cytotoxicity assay, KBv200 cells; format: cell-based; conditions: Homo sapiens, 72 h treatment, vincristine-selected ABCB1-overexpressing KBv200 cells
# Method: as §1, §2
# MCF-7/adr cells = test: MTT cytotoxicity assay, MCF-7/adr cells; format: cell-based; conditions: Homo sapiens, NCI/ADR-RES, 72 h treatment, doxorubicin-selected ABCB1-overexpressing MCF-7/adr cells
# Method: as §1, §2
# MCF-7 cells = test: MTT cytotoxicity assay, MCF-7 cells; format: cell-based; conditions: Homo sapiens, MCF7, 72 h treatment, MCF-7 breast carcinoma cells
# Method: as §1, §2
# normal liver LO2 cells = test: MTT cytotoxicity assay, normal liver LO2 cells; format: cell-based; conditions: for IC50: Homo sapiens, L02, 72 h treatment
# Method: as §1, §2
# [1] = system: KB, KBv200, MCF-7, MCF-7/adr, and A549 cells; test: MTT anticancer screen, cancer cell panel; format: cell-based, human; conditions: for IC50: Homo sapiens, MTT, KB, KBv200, MCF-7, MCF-7/adr, and A549 cells, read-out: IC50 values (potent cytotoxic activity)
# Method: as §1, §2
# pcDNA3.1(+) DNA = test: DNA binding assay (agarose gel electrophoresis); conditions: 10, 100 or 200 μmol/L with 1 μg pcDNA3.1(+), 37 °C, 3 h; 1% agarose gel
# Method: 10, 100 or 200 μmol/L compounds were incubated with 1 μg pcDNA3.1(+) at 37 °C for 3 h. The mixtures were then subjected to electrophoresis on a 1% agarose gel, pre-stained with 0.5 μg/ml ethidium bromide, at 60 V for 40 min. Doxorubicin (DOX) was used as a positive control.
Structure (SMILES),IC50 (A549 cells) [µM],IC50 (KB cells) [µM],IC50 (KBv200 cells) [µM],IC50 (MCF-7/adr cells) [µM],IC50 (MCF-7 cells) [µM],IC50 (normal liver LO2 cells; normal liver LO2 cells) [µM],growth inhibitory activity in LO2 cells (in words) (normal liver LO2 cells; normal liver LO2 cells),IC50 [1] [µM],DNA intercalation / binding to DNA (pcDNA3.1(+) DNA),sensitivity of cancer cells compared with normal liver LO2 cells (normal liver LO2 cells; cancer cells versus LO2 cells),"IC50 values in MDR cells compared with parental sensitive cells ([1]; KBv200, MCF-7/adr versus KB, MCF-7)"
Cc1c(O)cc(O)c(C(=O)O)c1C [Compound 4],17.1 ± 1.03,1.15 ± 0.06,6.74 ± 0.38,35.7 ± 2.08,11.7 ± 0.86,16.5 ± 1.22,exhibited growth inhibitory activity in LO2 cells,< 50,none of the compounds investigated here showed binding to DNA,–,–
Cc1c(CO)cc([N+](=O)[O-])cc1CO [Compound 1],2.71 ± 0.15,1.57 ± 0.08,2.67 ± 0.17,2.34 ± 0.11,1.38 ± 0.07,6.59 ± 0.44,–,< 50,none of the compounds investigated here showed binding to DNA,more sensitive,–
"COc1cccc2c1C(=O)c1c(O)c3c(c(O)c1C2=O)C[C@@](O)(C(=O)CO)C[C@@H]3O[C@H]1C[C@H](N)[C@H](O)[C@H](C)O1 [Doxorubicin, reference compound]",1.67 ± 0.09,0.05 ± 0.003,3.21 ± 0.12,22.3 ± 1.56,0.39 ± 0.02,0.11 ± 0.01,–,–,effectively intercalated into DNA in a concentration-dependent manner,–,much higher IC50 values
